How the values were obtained:
[1] = Phase 1 study, healthy volunteers; cited from earlier work
[2] = test system: mouse model of anti-platelet driven immune thrombocytopenia; assay: mouse model of immune thrombocytopenia, platelet count
blood platelets = assay: ex vivo platelet aggregation, standard panel of platelet agonists; assay type: cell-based, human; conditions: for platelet aggregation: ≤1 μM, standard panel of platelet agonists
[3] = test system: rat collagen-induced arthritis model; assay: rat collagen-induced arthritis model; assay type: in vivo
P-gp = P-gp (Homo sapiens, UniProt P08183); conditions: not told
human B cell activation = human B cell activation in vitro; assay type: cell-based
[4] = in vivo
Source text: TEAEs include all AEs that start on or after the first dose of study medication, or AEs that are present prior to the first dose of study medication, but their severity or relationship increases after the first dose of study medication up to and including the final study medication dosing date. Within each preferred term, patients are counted only once if they had more than one event reported during the dosing period.
Non-hematologic DLT is considered any >Grade 3 non-hematologic toxicity per the NCI Common Terminology Criteria for Adverse Events (CTCAE), version 4.0, with the following exceptions: laboratory TEAEs that are asymptomatic and return to baseline or to Grade 1 within 7 days; fatigue; nausea, vomiting or diarrhea that return to baseline or Grade 1 within 7 days; and systemic reactions (such as, e.g., fever, headache) that return to baseline or Grade 1 within 7 days. Any toxicity that, at the discretion of the Investigator, is thought to warrant withholding the study drug for more than 7 days is also considered a DLT.
The AE Collection Period begins at the time of the first screening/eligibility assessment and ends at the end of the study for each patient. […] An AE can therefore be any unfavorable and unintended sign (including an abnormal laboratory finding, for example), symptom, or disease temporally associated with the use of an investigational product, whether or not considered related to the product. Investigators are instructed to record all AEs encountered during the clinical study in detail from the date of participant consent throughout the study follow-up period. Pre-existing conditions that worsen during a study are reported as AEs.
Investigators are instructed to report all clinical AEs encountered during the study. The intensity of AEs is graded based on the NCI CTCAE, Version 4.0 or higher. For any AEs not found in the CTCAE, a description of intensity grading can be found below: • Grade 1: Mild; asymptomatic or mild symptoms; clinical or diagnostic observations only; intervention not indicated. • Grade 2: Moderate; minimal, local or noninvasive intervention indicated; limiting age-appropriate instrumental activities of daily living. • Grade 3: Severe or medically significant but not immediately life-threatening; hospitalization or prolongation of hospitalization indicated; disabling; limiting self-care activities of daily living.

clinical = conditions: human, in vivo
[5] = test system: spontaneous canine pemphigus foliaceus; assay: spontaneous canine pemphigus foliaceus; assay type: in vivo
[6] = in vivo; remark: listed apart in the source
251-kinase panel = assay: 251-kinase panel, kinase selectivity; assay type: biochemical; conditions: 1 μM
Fc receptor signaling = assay: antibody mediated activation of immune cells in vitro; assay type: cell-based
[7] = test system: rat antibody-mediated arthus model; assay: rat antibody-mediated arthus model; assay type: in vivo
pemphigus patients = assay: human pemphigus (PV; Study PRN1008-005)

P-gp, sequence (P08183 whole entry): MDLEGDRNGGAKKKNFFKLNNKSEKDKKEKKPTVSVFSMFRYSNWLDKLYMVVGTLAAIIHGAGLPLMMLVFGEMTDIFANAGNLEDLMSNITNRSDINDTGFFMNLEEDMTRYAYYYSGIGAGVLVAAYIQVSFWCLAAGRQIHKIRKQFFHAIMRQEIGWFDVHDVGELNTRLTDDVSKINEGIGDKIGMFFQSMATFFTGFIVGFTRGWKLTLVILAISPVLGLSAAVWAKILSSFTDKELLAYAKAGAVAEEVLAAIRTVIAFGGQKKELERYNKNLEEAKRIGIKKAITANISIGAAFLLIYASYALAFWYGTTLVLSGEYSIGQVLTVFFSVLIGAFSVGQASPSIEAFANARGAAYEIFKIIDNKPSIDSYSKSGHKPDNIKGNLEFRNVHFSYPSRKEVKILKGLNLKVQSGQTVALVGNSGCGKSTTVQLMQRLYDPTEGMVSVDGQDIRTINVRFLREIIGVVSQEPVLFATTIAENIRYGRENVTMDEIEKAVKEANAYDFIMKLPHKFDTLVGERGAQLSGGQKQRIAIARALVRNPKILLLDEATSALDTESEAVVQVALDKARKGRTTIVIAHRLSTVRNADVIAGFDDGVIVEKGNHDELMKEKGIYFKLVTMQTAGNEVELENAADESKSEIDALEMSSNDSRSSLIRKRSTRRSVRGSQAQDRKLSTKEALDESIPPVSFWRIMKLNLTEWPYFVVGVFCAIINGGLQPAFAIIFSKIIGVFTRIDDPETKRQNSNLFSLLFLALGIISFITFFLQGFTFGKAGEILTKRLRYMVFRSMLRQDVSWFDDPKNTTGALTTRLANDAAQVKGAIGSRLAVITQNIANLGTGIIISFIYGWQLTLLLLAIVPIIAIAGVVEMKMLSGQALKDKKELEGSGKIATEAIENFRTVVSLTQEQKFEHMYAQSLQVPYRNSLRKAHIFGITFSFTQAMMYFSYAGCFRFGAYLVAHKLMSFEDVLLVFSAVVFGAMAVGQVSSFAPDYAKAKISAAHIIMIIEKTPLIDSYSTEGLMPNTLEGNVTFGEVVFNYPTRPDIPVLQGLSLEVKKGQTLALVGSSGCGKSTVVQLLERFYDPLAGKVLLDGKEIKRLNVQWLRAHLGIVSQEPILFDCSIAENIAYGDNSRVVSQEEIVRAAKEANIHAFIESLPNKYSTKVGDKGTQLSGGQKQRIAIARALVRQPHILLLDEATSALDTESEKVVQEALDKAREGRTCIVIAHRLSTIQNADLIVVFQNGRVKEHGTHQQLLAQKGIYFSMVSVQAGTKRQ

CC(C)(C=C(C#N)C(=O)N1CCC[C@@H](n2nc(-c3ccc(Oc4ccccc4)cc3F)c3c(N)ncnc32)C1)N1CCN(C2COC2)CC1 [PRN1008, (R)-2-[3-[4-amino-3-(2-fluoro-4-phenoxy-phenyl)pyrazolo[3,4-d]pyrimidin-1-yl]piperidine-1-carbonyl]-4-methyl-4-[4-(oxetan-3-yl)piperazin-1-yl]pent-2-enenitrile]
most commonly reported adverse events [1]: gastrointestinal adverse events, including nausea/vomiting and diarrhea
serious adverse events or deaths [1]: No serious adverse events or deaths were reported
platelet decrease from baseline ([2]; 10 mg/kg/d, anti-platelet challenge (vehicle 83.1%)): 71.9%
platelet-loss (consumption) ([2]; mouse model of immune thrombocytopenia): significant dose dependent reduction
platelet aggregation (blood platelets; blood of ITP patients): no effect
platelet aggregation (blood platelets; blood of healthy volunteers): no effect
collagen-induced platelet aggregation (blood platelets; normal or ITP patient platelet samples, clinically relevant concentrations): did not impact
anti-inflammatory effects [3]: rapid and significant anti-inflammatory effects
P-gp substrate (P-gp): substrate
human B cell activation (human B cell activation): profoundly inhibits
All related TEAEs, Grade 1 ([4]; human): 10 (21) n (%)
All related TEAEs, Grade 2 ([4]; human): 11 (23) n (%)
Related TEAEs, Abdominal distension, Grade 1/2 ([4]; human): 3 (10) n (%)
Related TEAEs, All TEAEs, Grade 1/2 ([4]; human): 11 (35) n (%)
Related TEAEs, Diarrhea, Grade 1 ([4]; human): 14 (30) n (%)
Related TEAEs, Diarrhea, Grade 1/2 ([4]; human): 7 (23) n (%)
Related TEAEs, Diarrhea, Grade 2 ([4]; human): 2 (4) n (%)
Related TEAEs, Fatigue, Grade 1 ([4]; human): 5 (11) n (%)
Related TEAEs, Fatigue, Grade 1/2 ([4]; human): 3 (10) n (%)
Related TEAEs, Fatigue, Grade 2 ([4]; human): 1 (2) n (%)
Related TEAEs, Nausea, Grade 1 ([4]; human): 12 (26) n (%)
Related TEAEs, Nausea, Grade 1/2 ([4]; human): 8 (26) n (%)
Related TEAEs, Nausea, Grade 2 ([4]; human): 1 (2) n (%)
dose-limiting toxicities [4]: No dose-limiting toxicities were observed
related serious adverse events [4]: No related serious adverse events were reported
thrombotic events [4]: no thrombotic events
treatment related bleeding or thrombotic events [4]: no reported treatment related bleeding or thrombotic events
Tmax (clinical): ~2.5 h
half-life (clinical; po): 3 to 4 h
CYP3A inhibitor (CYP3A): inhibitor
CYP3A substrate (CYP3A): substrate
anti-inflammatory effects [5]: rapid and significant anti-inflammatory effects
impact of food on extent of absorption [6]: does not appear to impact
number of kinases with >90% inhibition (251-kinase panel): 6 kinases
antibody (IgG, IgE) mediated activation of immune cells via Fc receptor signaling (Fc receptor signaling): blocks
anti-inflammatory effects [7]: rapid and significant anti-inflammatory effects
onset of clinical effect in most pemphigus patients (pemphigus patients; Study PRN1008-005): ≤ 4 weeks
anti-inflammatory effects (pemphigus patients; human pemphigus vulgaris (PV)): rapid and significant anti-inflammatory effects

From patent publication US12178818B2, “Methods for treating immune thrombocytopenia by administering (R)-2-[3-[4-amino-3-(2-fluoro-4-phenoxy-phenyl)pyrazolo[3,4-d]pyrimidin-1-yl]piperidine-1-carbonyl]-4-methyl-4-[4-(oxetan-3-yl)piperazin-1-yl]pent-2-enenitrile” (Principia Biopharma Inc., priority 2019, dated 2024)
